7 molecules from US20260217764A1, “SELECTIVE INHIBITORS OF C. ACNES HYALURONIDASE” (priority 2022, published 2026) can be followed below.

One test concerns the target T1, HylA (Cutibacterium acnes, UniProt A0A2B7ICX0).
T1 construct: HylA (41-805) were cloned into; His6 (N); MBP (N); made in house; host or cells: E. coli BL21(DE3) pLysS
As to the kind of experiment: Microscale thermophoresis (MST) measurement of HylA binding to peptide inhibitors. Set-up: species or system C. acnes. As to the method:
The Monolith NT.115 instrument (Nanotemper Technologies, München, Germany) was used to measure the binding of peptide inhibitors to the HylA. For the MST experiment, the HylA is fluorescently labeled by cysteine labeling by using the Monolith protein labeling kit RED-MALEIMIDE 2nd generation (Catalog Number: L014). The assay is performed in 100 mM Sodium acetate buffer pH 5.3 supplied with 0.05% Tween-20. A serial dilution of the 1932 peptide (50 μM through 1.5 nM) was titrated against 30 nM fluorescent labeled HylA. For the titration, 10 μL of each concentration of the peptide was mixed with 10 μL of the fluorescent labeled HylA. The MST measurement settings include medium MST power, 40% excitation power, Nano-RED excitation type and 25° C. thermostat temperature. Affinity of the peptide binding to HylA was determined by the MO.Affinity Analysis Software (Nanotemper Technologies, München, Germany).

A further test concerns the target T2, rHylA (Cutibacterium acnes, UniProt A0A2B7ICX0).
T2 construct: HylA (41-805) were cloned into; His6 (N); MBP (N); made in house; host or cells: E. coli BL21(DE3) pLysS
As to the kind of experiment: HA digested with rHylA in presence of inhibitor, digest applied to HaCaT cells, IL-6 by ELISA. The class given is cell-based, C. acnes. Conditions: inhibitor 5 or 10 μM, HA 2 mg/ml digested with rHylA 24 hr, IL-6 in HaCaT culture supernatant. As to the method: HaCaT cells (ATCC) were cultured in complete DMEM media (Catalog no. 10-013-CV, Corning incorporated, USA) plus 10% heat-inactivated FBS in 5% C02 at 37° C. Before cell stimulation with digested HA (40 μg), HaCaT cells were seeded in 96-wells Falcon® 96-well tissue culture plate (Catalog no. #353072, corning incorporated, USA) at a concentration of 10^5 cells/ml and incubated in 5% CO2 at 37° C. for 6 hr, followed by washing with DMEM media and cell stimulation.
For BMDMs and HaCaT cell assays, an equivalent of 40 μg of HA digest was used to stimulate 10^5 cells for 8 and 16 hr, respectively. Cells were plated in a Falcon® 96-well tissue culture plate and cultured in 200 μl of complete RPMI medium supplemented with 10% FBS and 1× penicillin-streptomycin antibiotics solution. […]
IL-1β, IL-6, and TNF-α cytokine levels in skin homogenates, previously stored at −80° C., were measured by a solid-phase sandwich ELISA using commercially available mouse cytokine ELISA kits (Biolegend, San Diego, CA, USA). […] The plates were developed and read at optical density (OD) of 450 nm with a wavelength correction set to 570 nm in a multimode microplate reader (PerkinElmer, Waltham, MA, USA). […]

The test system of the next test is HL043PA1 strain. As to the kind of experiment: Mouse acne model, inhibitor co-injected i.d. with acne-associated HL043PA1 strain. Conditions: CD1 mice, 10 μg inhibitor co-injected i.d. with 2×10^7 CFU HL043PA1, disease score and skin cytokines 24 hr post-infection. The class given is in vivo, C. acnes. As to the method: To model human acne disease, 8 weeks-old mice were i.d. infected with C. acnes strains (2×10^7 CFU in 50 μl volume of BHI media), followed by the topical application of synthetic sebum daily as described previously. i.d. infections were performed under vaporized Isoflurane (Fluriso, Vet One) anesthesia. Synthetic sebum was made by mixing fatty acid (17% oleic acid; Catalog no. #01008, Millipore Sigma), triglyceride (45% triolein; Catalog no. #ICN10312201, FisherScientific), wax monoester (25% jojoba oil, Trader Joe), and squalene (13%; Catalog no. #AC215351000, FisherScientific). One or two days after infection, disease score was assessed and the mice were euthanized by C02. Skin lesions were aseptically excised and harvested in phosphate buffer saline (PBS, pH 7.4). […]
Gross skin pathology was scored based on tabulation of the following: Erythematous change (no=0, mild=1, moderate 2, and marked=3); papule (flat=0, small=1, large=2. And extra-large=3) based on a protocol modified from.
For in vivo experiments, inhibitors (10 μg) were injected along with C. acnes strains (2×10^7 CFU) i.d. into CD1 mice, followed by the topical application of sebum. After 24 hr, bacterial count (CFU/ml), size of the skin lesions and proinflammatory cytokines (IL-1β, IL-6 and TNF-α) in skin lesions were measured. […]

In test [1] the target is C. acnes hyaluronidase HylA, recombinant (rHylA), fluorescently labeled (C. acnes). As to the kind of experiment: not given; MST against fluorescent labeled HylA per the methods.
For test [2] the target is unchanged. As to the kind of experiment: Microscale thermophoresis (MST), peptide titrated against fluorescent labeled HylA.
In test [3] the target is T3, C. acnes hyaluronidase HylA, recombinant (rHylA), fluorescently labeled (C. acnes, UniProt A0A2B7ICX0 41-805, Fluorescently labelled on cysteine(s) with the RED-MALEIMIDE 2nd generation dye. Which cysteine carries the dye is not stated.).
T3 construct: TEV cleavage is described only for the crystallization preparation; not shown: N-terminal His6-MBP-TEV tag from the pET His6 MBP TEV LIC vector
T3 sequence: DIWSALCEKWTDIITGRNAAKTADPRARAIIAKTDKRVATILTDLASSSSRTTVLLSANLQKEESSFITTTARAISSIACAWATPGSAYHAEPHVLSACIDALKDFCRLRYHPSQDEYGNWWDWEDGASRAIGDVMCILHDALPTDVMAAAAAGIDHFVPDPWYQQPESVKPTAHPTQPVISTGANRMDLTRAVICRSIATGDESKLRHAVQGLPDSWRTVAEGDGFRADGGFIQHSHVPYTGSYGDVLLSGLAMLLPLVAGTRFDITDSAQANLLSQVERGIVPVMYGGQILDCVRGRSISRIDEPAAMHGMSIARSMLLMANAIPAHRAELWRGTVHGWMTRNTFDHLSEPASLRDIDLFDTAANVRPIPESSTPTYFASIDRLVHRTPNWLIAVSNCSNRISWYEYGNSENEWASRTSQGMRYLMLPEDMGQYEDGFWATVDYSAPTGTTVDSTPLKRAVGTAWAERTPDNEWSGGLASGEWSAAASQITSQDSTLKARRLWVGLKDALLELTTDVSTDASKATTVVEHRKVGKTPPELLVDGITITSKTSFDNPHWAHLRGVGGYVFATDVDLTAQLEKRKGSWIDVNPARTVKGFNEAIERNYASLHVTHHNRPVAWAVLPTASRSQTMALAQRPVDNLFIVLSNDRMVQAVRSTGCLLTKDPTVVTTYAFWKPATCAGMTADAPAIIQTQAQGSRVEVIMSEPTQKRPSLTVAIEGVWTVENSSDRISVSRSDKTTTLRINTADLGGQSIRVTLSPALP
As to the kind of experiment: not given; MST against fluorescent labeled HylA per the methods.

Test [4] concerns the target T3, C. acnes hyaluronidase HylA, …. As to the kind of experiment: microscale thermophoresis (MST), peptide titrated against fluorescently labeled HylA, Kd model fit, mean +/- SD of triplicates.
Test [5] has the same target. As to the kind of experiment: Microscale thermophoresis (MST), peptide titrated against fluorescent labeled HylA.
The mark [6] stands for this setting: binding constant (KD), MST, peptide titrated against 30 nM fluorescent labeled HylA, values in running text and figure legend.

Square brackets hold non-standard residues; d marks the D form. Ends that are not written are not given here. Peptide text beside a SMILES is read from it.

In the case of `NC(=O)[C@@H](CCC(=O)O)NC(=O)[C@H](CO)NC(=O)[C@@H](CCC(=O)O)NC(=O)[C@H](Cc1ccc(O)cc1)NC(=O)[C@@H](CCC(=O)O)NC(=O)[C@H](CC(=O)O)NC(=O)[C@@H](N)Cc1ccc(O)cc1` [i93, Tyr-Asp-dGlu-Tyr-dGlu-Ser-dGlu-NH2] (H-YD[dE]Y[dE]S[dE]-NH2; N-terminus assumed), the Kd on HylA (KD, table Peptides' properties) is 140 µM; on HylA (setting [6]) it was 911 µM.
In the case of `N[C@@H](Cc1ccc(O)cc1)C(=O)N[C@@H](CC(=O)O)C(=O)N[C@H](CCC(=O)O)C(=O)N[C@@H](Cc1ccc(O)cc1)C(=O)N[C@H](CCC(=O)O)C(=O)N[C@@H](CO)C(=O)N[C@H](CCC(=O)O)C(=O)O` [i94, Tyr-Asp-dGlu-Tyr-dGlu-Ser-dGlu-OH] (H-YD[dE]Y[dE]S[dE]-OH; N-terminus assumed), on HylA (KD, table Peptides' properties), binding was put at a Kd of 4.3 µM.
With `NC(=O)[C@@H](CCC(=O)O)NC(=O)[C@H](CO)NC(=O)[C@H](CC(=O)O)NC(=O)[C@H](Cc1ccc(O)cc1)NC(=O)[C@@H](CCC(=O)O)NC(=O)[C@H](CC(=O)O)NC(=O)[C@H](Cc1ccc(O)cc1)NC(=O)[C@@H](CCC(=O)O)NC(=O)[C@H](CO)NC(=O)[C@@H](CCC(=O)O)NC(=O)[C@H](Cc1ccc(O)cc1)NC(=O)[C@@H](CCC(=O)O)NC(=O)[C@H](CC(=O)O)NC(=O)[C@@H](N)Cc1ccc(O)cc1` [i932, Tyr-Asp-dGlu-Tyr-dGlu-Ser-dGlu-Tyr-Asp-dGlu-Tyr-Asp-Ser-dGlu-NH2] (H-YD[dE]Y[dE]S[dE]YD[dE]YDS[dE]-NH2; N-terminus assumed), the efficacy in vitro result on rHylA is given as “highest efficacy”. Further, the Kd at HylA (setting [6]) turned out to be 3.06 µM; at HylA (binding constant (KD), MST, peptide titrated against fluorescent labeled HylA, value) it was 0.0216 µM. In addition, the efficacy in vivo result in the test with HL043PA1 strain is “highest efficacy”.
For “peptide i93, Tyr-Asp-dGlu-Tyr-dGlu-Ser-dGlu-NH2”, the results for the Kd in test [1] and in test [2] were 140 µM and 912 µM, respectively.
In the case of “peptide i94, Tyr-Asp-dGlu-Tyr-dGlu-Ser-dGlu-OH”, the Kd in test [1] amounted to 4.3 µM.

B1: peptide i932, Tyr-Asp-dGlu-Tyr-dGlu-Ser-dGlu-Tyr-Asp-dGlu-Tyr-Asp-Ser-dGlu-NH2 (peptide)
peptide: YD[dE]Y[dE]S[dE]YD[dE]YDS[dE]-NH2
modifications: N-terminus assumed
SMILES: NC(=O)[C@@H](CCC(=O)O)NC(=O)[C@H](CO)NC(=O)[C@H](CC(=O)O)NC(=O)[C@H](Cc1ccc(O)cc1)NC(=O)[C@@H](CCC(=O)O)NC(=O)[C@H](CC(=O)O)NC(=O)[C@H](Cc1ccc(O)cc1)NC(=O)[C@@H](CCC(=O)O)NC(=O)[C@H](CO)NC(=O)[C@@H](CCC(=O)O)NC(=O)[C@H](Cc1ccc(O)cc1)NC(=O)[C@@H](CCC(=O)O)NC(=O)[C@H](CC(=O)O)NC(=O)[C@@H](N)Cc1ccc(O)cc1
notes: Designed by structure-based virtual screening against the HylA crystal structure; also called 1932
Consider B1, for which the Kd in test [3] was 3.1 µM.
With YCD[dE]Y[dE]S[dE]CY-NH2 (also: cyclic peptide with Cys2 and Cys9, mode of cyclization not given here, also called 1933) [peptide i933, Tyr-Cys-Asp-dGlu-Tyr-dGlu-Ser-dGlu-Cys-Tyr-NH2], in test [4], the “EC50 (read off the curve)” value is approximately 2 µM. The Kd in test [3] worked out at 292 µM; in test [5], 1.76 µM.
